# Test results taken from patent US12077503B2, “Substituted cyclic amides and their use as herbicides” (FMC CORPORATION, priority 2015, dated 2024).
# Read-outs that look alike come from different tables or passages of the source.
# What was measured:
# Assay type in all cases: in vivo
# [1] = system: arrowleaf Sida (Sida rhombifolia); assay: Test E preemergence; conditions: scale 0 to 100
# Text: (§1) Seeds of plant species selected from corn (Zea mays), soybean (Glycine max), velvetleaf (Abutilon theophrasti), lambsquarters (Chenopodium album), poinsettia, wild (wild poinsettia, Euphorbia heterophylla), pigweed, palmer (palmer pigweed, Amaranthus palmeri), waterhemp (common waterhemp, Amaranthus rudis), surinam grass (Brachiaria decumbens), crabgrass, large (large crabgrass, Digitaria sangumnalis), crabgrass, Brazil (Brazilian crabgrass, Digitaria horizontalis), Panicum, fall (fall Panicum, Panicum dichotomiflorum), foxtail, giant (giant foxtail, Setaria faberii), foxtail, green (green foxtail, Setaria viridis), goosegrass (Eleusine indica), johnsongrass (Sorghum halepense), ragweed (common ragweed, Ambrosia elatior), barnyardgrass (Echinochloa crus-galli), sandbur (southern sandbur, Cenchrus echinatus), arrowleaf Sida (Sida rhombifolia), ryegrass, Italian (Italian ryegrass, Lolium multiflorum), dayflower, VA (Virginia dayflower, Commelina virginica), field bindweed (Convolvulus arvensis), morningglory (Ipomoea coccinea), nightshade (eastern black nightshade, Solanum ptycanthum), Kochia (Kochia scoparia), nutsedge, yellow (yellow nutsedge, Cyperus esculentus), horseweed (Conyza canadensis), and beggarticks (hairy beggarticks, Bidens pilosa), were planted into a silt loam soil and treated preemergence with test chemicals formulated in a non-phytotoxic solvent mixture which included a surfactant.
# (§2) At the same time, plants selected from these crop and weed species were planted in pots containing Sunshine Redi-Earth planting medium comprising spaghnum peat moss, vermiculite, starter nutrients and dolomitic limestone and treated with postemergence applications of a test chemical formulated in the same manner. Plants ranged in height from 2 to 18 cm (1- to 4-leaf stage) for postemergence treatments. Treated plants and controls were maintained in a greenhouse for 14 to 21 d, after which time all species were compared to controls and visually evaluated. Plant response ratings, summarized in Table E, are based on a scale of 0 to 100 where 0 is no effect and 100 is complete control. A dash (-) response means no test result.
# [2] = system: sandbur (southern sandbur, Cenchrus echinatus); assay: Test E preemergence; conditions: scale 0 to 100
# Text: as §1, §2
# [3] = system: goosegrass (Eleusine indica); assay: Test E preemergence; conditions: scale 0 to 100
# Text: as §1, §2
# [4] = system: waterhemp (common waterhemp, Amaranthus rudis); assay: Test E preemergence; conditions: scale 0 to 100
# Text: as §1, §2
# [5] = system: barnyardgrass (Echinochloa crus-galli); assay: Test E preemergence; conditions: scale 0 to 100
# Text: as §1, §2
# [6] = system: dayflower, VA (Virginia dayflower, Commelina virginica); assay: Test E preemergence; conditions: scale 0 to 100
# Text: as §1, §2
# [7] = system: lambsquarters (Chenopodium album); assay: Test E preemergence; conditions: scale 0 to 100
# Text: as §1, §2
# [8] = system: foxtail, green (green foxtail, Setaria viridis); assay: Test E preemergence; conditions: scale 0 to 100
# Text: as §1, §2
# [9] = system: ryegrass, Italian (Italian ryegrass, Lolium multiflorum); assay: Test A preemergence; conditions: Lolium multiflorum, pre-emergence, 240 h; for pest or weed control at 125 g/ha: 125 g ai/ha, visual injury after approximately 10 d, 0 to 100 scale where 0 is no effect and 100 is complete control; for pest or weed control at 500 g/ha: 500 g ai/ha
# Procedure, shortened: (§3)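 Visual injury scores from 0, no effect, to 100, complete control, were assigned versus untreated controls roughly 10 d after treatment in the greenhouse. Test chemicals, formulated with surfactant in a non-phytotoxic solvent, were applied to planted seeds as a preemergence soil spray or postemergence to one- to two-leaf plants 2 to 10 cm tall, in loam–sand soil.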
# [10] = system: ragweed (common ragweed, Ambrosia elatior); assay: Test A preemergence; conditions: Ambrosia artemisiifolia, pre-emergence, 240 h; for pest or weed control at 125 g/ha: 125 g ai/ha, visual injury after approximately 10 d, 0 to 100 scale where 0 is no effect and 100 is complete control; for pest or weed control at 500 g/ha: 500 g ai/ha
# Procedure, shortened: as §3
# [11] = system: barnyardgrass (Echinochloa crus-galli); assay: Test A preemergence; conditions: Echinochloa crus-galli, pre-emergence, 240 h; for pest or weed control at 125 g/ha: 125 g ai/ha, visual injury after approximately 10 d, 0 to 100 scale where 0 is no effect and 100 is complete control; for pest or weed control at 500 g/ha: 500 g ai/ha
# Procedure, shortened: as §3
# [12] = system: giant foxtail (Setaria faberii); assay: Test A preemergence; conditions: Setaria faberi, pre-emergence, 240 h; for pest or weed control at 125 g/ha: 125 g ai/ha, visual injury after approximately 10 d, 0 to 100 scale where 0 is no effect and 100 is complete control; for pest or weed control at 500 g/ha: 500 g ai/ha
# Procedure, shortened: as §3
# Kochia (Kochia scoparia) = assay: Test A preemergence; conditions: Bassia scoparia, pre-emergence, 240 h; for pest or weed control at 125 g/ha: 125 g ai/ha, visual injury after approximately 10 d, 0 to 100 scale where 0 is no effect and 100 is complete control; for pest or weed control at 500 g/ha: 500 g ai/ha
# Procedure, shortened: as §3
# [13] = Preemergence, read-out: Plant response rating, Ryegrass, Italian
# [14] = Preemergence, read-out: Plant response rating, Ragweed
# [15] = Preemergence, read-out: Plant response rating, Barnyardgrass
# [16] = Preemergence, read-out: Plant response rating, Foxtail, Giant
# [17] = Preemergence, read-out: Plant response rating, Kochia
structure (smiles),measurement,setting,value
"CN1C[C@H](c2ccc(F)c(F)c2)[C@@H](C(=O)Nc2ccccc2F)C1=O [Compound 596, (3S,4S)-4-(3,4-difluorophenyl)-N-(2-fluorophenyl)-1-methyl-2-oxo-3-pyrrolidinecarboxamide]",Plant response rating: Arrowleaf Sida,[1]; 31 g ai/ha,35
same,Plant response rating: Arrowleaf Sida,[1]; 62 g ai/ha,30
same,Plant response rating: Arrowleaf Sida,[1]; 125 g ai/ha,30
same,Plant response rating: Arrowleaf Sida,[1]; 250 g ai/ha,50
same,Plant response rating: Sandbur,[2]; 31 g ai/ha,85
same,Plant response rating: Sandbur,[2]; 62 g ai/ha,90
same,Plant response rating: Sandbur,[2]; 125 g ai/ha,90
same,Plant response rating: Sandbur,[2]; 250 g ai/ha,95
same,Plant response rating: Goosegrass,[3]; 31 g ai/ha,5
same,Plant response rating: Goosegrass,[3]; 62 g ai/ha,5
same,Plant response rating: Goosegrass,[3]; 125 g ai/ha,25
same,Plant response rating: Goosegrass,[3]; 250 g ai/ha,65
same,Plant response rating: Waterhemp,[4]; 31 g ai/ha,0
same,Plant response rating: Waterhemp,[4]; 62 g ai/ha,0
same,Plant response rating: Waterhemp,[4]; 125 g ai/ha,0
same,Plant response rating: Waterhemp,[4]; 250 g ai/ha,50
same,Plant response rating: Barnyardgrass,[5]; 31 g ai/ha,95
same,Plant response rating: Barnyardgrass,[5]; 62 g ai/ha,98
same,Plant response rating: Barnyardgrass,[5]; 125 g ai/ha,98
same,Plant response rating: Barnyardgrass,[5]; 250 g ai/ha,98
same,"Plant response rating: Dayflower, VA",[6]; 31 g ai/ha,0
same,"Plant response rating: Dayflower, VA",[6]; 62 g ai/ha,40
same,"Plant response rating: Dayflower, VA",[6]; 125 g ai/ha,40
same,"Plant response rating: Dayflower, VA",[6]; 250 g ai/ha,35
same,Plant response rating: Lambsquarters,[7]; 31 g ai/ha,25
same,Plant response rating: Lambsquarters,[7]; 62 g ai/ha,25
same,Plant response rating: Lambsquarters,[7]; 125 g ai/ha,80
same,Plant response rating: Lambsquarters,[7]; 250 g ai/ha,90
same,"Plant response rating: Foxtail, Green",[8]; 31 g ai/ha,95
same,"Plant response rating: Foxtail, Green",[8]; 62 g ai/ha,95
same,"Plant response rating: Foxtail, Green",[8]; 125 g ai/ha,95
same,"Plant response rating: Foxtail, Green",[8]; 250 g ai/ha,95
same,pest or weed control at 125 g/ha,[9]; [13],40%
same,pest or weed control at 500 g/ha,"[9]; Preemergence, visual injury approx. 10 d, read-out: Ryegrass, Italian plant response rating (0 to 100 scale, 0 is no effect, 100 is complete control)",50%
same,pest or weed control at 125 g/ha,[10]; [14],0%
same,pest or weed control at 500 g/ha,"[10]; Preemergence, visual injury approx. 10 d, read-out: Ragweed plant response rating (0 to 100 scale, 0 is no effect, 100 is complete control)",20%
same,pest or weed control at 125 g/ha,[11]; [15],90%
same,pest or weed control at 500 g/ha,"[11]; Preemergence, visual injury approx. 10 d, read-out: Barnyardgrass plant response rating (0 to 100 scale, 0 is no effect, 100 is complete control)",100%
same,pest or weed control at 125 g/ha,[12]; [16],100%
same,pest or weed control at 500 g/ha,"[12]; Preemergence, visual injury approx. 10 d, read-out: Foxtail, Giant plant response rating (0 to 100 scale, 0 is no effect, 100 is complete control)",100%
same,pest or weed control at 125 g/ha,Kochia (Kochia scoparia); [17],20%
same,pest or weed control at 500 g/ha,"Kochia (Kochia scoparia); Preemergence, visual injury approx. 10 d, read-out: Kochia plant response rating (0 to 100 scale, 0 is no effect, 100 is complete control)",70%
"CN1C[C@H](c2ccc(C(F)(F)F)cc2)[C@@H](C(=O)Nc2cccc(F)c2F)C1=O [Compound 623, (3S,4S)—N-(2,3-difluorophenyl)-1-methyl-2-oxo-4-[4-(trifluoromethyl)phenyl]-3-pyrrolidinecarboxamide]",Plant response rating: Arrowleaf Sida,[1]; 31 g ai/ha,20
same,Plant response rating: Arrowleaf Sida,[1]; 62 g ai/ha,80
same,Plant response rating: Arrowleaf Sida,[1]; 125 g ai/ha,85
same,Plant response rating: Arrowleaf Sida,[1]; 250 g ai/ha,90
same,Plant response rating: Sandbur,[2]; 31 g ai/ha,90
same,Plant response rating: Sandbur,[2]; 62 g ai/ha,90
same,Plant response rating: Sandbur,[2]; 125 g ai/ha,90
same,Plant response rating: Sandbur,[2]; 250 g ai/ha,90
same,Plant response rating: Goosegrass,[3]; 31 g ai/ha,95
same,Plant response rating: Goosegrass,[3]; 62 g ai/ha,98
same,Plant response rating: Goosegrass,[3]; 125 g ai/ha,98
same,Plant response rating: Goosegrass,[3]; 250 g ai/ha,98
same,Plant response rating: Waterhemp,[4]; 31 g ai/ha,90
same,Plant response rating: Waterhemp,[4]; 62 g ai/ha,90
same,Plant response rating: Waterhemp,[4]; 125 g ai/ha,95
same,Plant response rating: Waterhemp,[4]; 250 g ai/ha,95
same,Plant response rating: Barnyardgrass,[5]; 31 g ai/ha,95
same,Plant response rating: Barnyardgrass,[5]; 62 g ai/ha,95
same,Plant response rating: Barnyardgrass,[5]; 125 g ai/ha,98
same,Plant response rating: Barnyardgrass,[5]; 250 g ai/ha,98
same,"Plant response rating: Dayflower, VA",[6]; 31 g ai/ha,0
same,"Plant response rating: Dayflower, VA",[6]; 62 g ai/ha,0
same,"Plant response rating: Dayflower, VA",[6]; 125 g ai/ha,20
same,"Plant response rating: Dayflower, VA",[6]; 250 g ai/ha,35
same,Plant response rating: Lambsquarters,[7]; 31 g ai/ha,90
same,Plant response rating: Lambsquarters,[7]; 62 g ai/ha,90
same,Plant response rating: Lambsquarters,[7]; 125 g ai/ha,100
same,Plant response rating: Lambsquarters,[7]; 250 g ai/ha,95
same,"Plant response rating: Foxtail, Green",[8]; 31 g ai/ha,95
same,"Plant response rating: Foxtail, Green",[8]; 62 g ai/ha,95
same,"Plant response rating: Foxtail, Green",[8]; 125 g ai/ha,98
same,"Plant response rating: Foxtail, Green",[8]; 250 g ai/ha,98
same,pest or weed control at 125 g/ha,[9]; [13],80%
same,pest or weed control at 500 g/ha,"[9]; preemergence, 0 to 100 scale, 0 = no effect, 100 = complete control, read-out: Plant response rating, Ryegrass, Italian",90%
same,pest or weed control at 125 g/ha,[10]; [14],80%
same,pest or weed control at 500 g/ha,"[10]; preemergence, 0 to 100 scale, 0 = no effect, 100 = complete control, read-out: Plant response rating, Ragweed",80%
same,pest or weed control at 125 g/ha,[11]; [15],90%
same,pest or weed control at 500 g/ha,"[11]; preemergence, 0 to 100 scale, 0 = no effect, 100 = complete control, read-out: Plant response rating, Barnyardgrass",90%
same,pest or weed control at 125 g/ha,[12]; [16],90%
same,pest or weed control at 500 g/ha,"[12]; preemergence, 0 to 100 scale, 0 = no effect, 100 = complete control, read-out: Plant response rating, Foxtail, Giant",90%
same,pest or weed control at 125 g/ha,Kochia (Kochia scoparia); [17],60%
same,pest or weed control at 500 g/ha,"Kochia (Kochia scoparia); preemergence, 0 to 100 scale, 0 = no effect, 100 = complete control, read-out: Plant response rating, Kochia",70%
